Source: the NIST ThermoML archive (doi:10.1021/je400830w)

Tests used:
[1] = wn = mass fraction of the nth substance listed; conditions: 100 kPa, Liquid; for mass density: Vibrating tube method
[2] = refractive index (Na D-line) (dimensionless); wn = mass fraction of the nth substance listed; conditions: 100 kPa, Liquid, Standard Abbe refractometry

O=C([O-])[C@@H]1CCCN1.[Na+] [sodium L-prolinate] + O
Conditions | mass density, [1] [kg/m3] | refractive index, [2] | viscosity, [1] [mPa·s]
298.15 K, w1 = 0.05 | – | 1.34005 | –
298.15 K, w1 = 0.1 | – | 1.34767 | –
298.15 K, w1 = 0.2 | – | 1.36337 | –
298.15 K, w1 = 0.3 | – | 1.37937 | –
298.15 K, w1 = 0.4 | – | 1.39604 | –
303.15 K, w1 = 0.05 | – | 1.33942 | –
303.15 K, w1 = 0.1 | – | 1.34706 | –
303.15 K, w1 = 0.2 | – | 1.36278 | –
303.15 K, w1 = 0.3 | – | 1.37869 | –
303.15 K, w1 = 0.4 | – | 1.39498 | –
308.15 K, w1 = 0.05 | – | 1.33879 | –
308.15 K, w1 = 0.1 | – | 1.34633 | –
308.15 K, w1 = 0.2 | – | 1.36201 | –
308.15 K, w1 = 0.3 | – | 1.37768 | –
308.15 K, w1 = 0.4 | – | 1.39387 | –
313.15 K, w1 = 0.05 | – | 1.33802 | –
313.15 K, w1 = 0.1 | – | 1.3456 | –
313.15 K, w1 = 0.2 | – | 1.36125 | –
313.15 K, w1 = 0.3 | – | 1.37678 | –
313.15 K, w1 = 0.4 | – | 1.39268 | –
318.15 K, w1 = 0.05 | – | 1.33724 | –
318.15 K, w1 = 0.1 | – | 1.34502 | –
318.15 K, w1 = 0.2 | – | 1.36042 | –
318.15 K, w1 = 0.3 | – | 1.37586 | –
318.15 K, w1 = 0.4 | – | 1.39154 | –
323.15 K, w1 = 0.05 | – | 1.33642 | –
323.15 K, w1 = 0.1 | – | 1.34433 | –
323.15 K, w1 = 0.2 | – | 1.35984 | –
323.15 K, w1 = 0.3 | – | 1.37526 | –
323.15 K, w1 = 0.4 | – | 1.39048 | –
328.15 K, w1 = 0.05 | – | 1.33569 | –
328.15 K, w1 = 0.1 | – | 1.34373 | –
328.15 K, w1 = 0.2 | – | 1.35931 | –
328.15 K, w1 = 0.3 | – | 1.37439 | –
328.15 K, w1 = 0.4 | – | 1.38912 | –
333.15 K, w1 = 0.05 | – | 1.33497 | 0.5454
333.15 K, w1 = 0.1 | – | 1.34306 | 0.6471
333.15 K, w1 = 0.2 | – | 1.35882 | 0.9221
333.15 K, w1 = 0.3 | – | 1.37364 | 1.519
333.15 K, w1 = 0.4 | – | 1.38795 | 1.96
338.15 K, w1 = 0.05 | 998.13 | 1.33424 | 0.5008
338.15 K, w1 = 0.1 | 1015.87 | 1.34256 | 0.593
338.15 K, w1 = 0.2 | 1051.56 | 1.35866 | 0.8345
338.15 K, w1 = 0.3 | 1088.2 | 1.37322 | 1.361
338.15 K, w1 = 0.4 | 1123.8 | 1.38677 | 1.728
343.15 K, w1 = 0.05 | 995.35 | 1.33349 | 0.4617
343.15 K, w1 = 0.1 | 1013.04 | 1.34213 | 0.5426
343.15 K, w1 = 0.2 | 1048.61 | 1.35842 | 0.7524
343.15 K, w1 = 0.3 | 1085.34 | 1.37279 | 1.203
343.15 K, w1 = 0.4 | 1120.46 | 1.38566 | 1.536
